We go through 42 compounds from patent US8901126B2, “Substituted imidazo[1,5-A]quinoxalin-4-ones are useful for preventing or treating storage dysfunction, voiding dysfunction and bladder/urethral diseases” (priority 2010, dated 2014).

Counter-ions that a name gives are not always drawn.

Series [1] deals with T1, PDE9 (Homo sapiens, UniProt O76083).
T1 construct: made in house
Briefly: PDE9-inhibiting activity (SPA, 3H-cGMP degradation). Type of series: biochemical. Conditions: PDE9-inhibiting activity (IC50 values), cGMP 1 μM, 30° C. The procedure:
The PDE9 used in the present experiment was expressed/purified by the method as in, for example, Guipponi et al., and Fisher et., al. (Fisher, D. A., et al., J. Biol. Chem., 273: pp. 15559-15564 (1998), Guipponi, M., et al., Hum. Genet., 103: pp. 386-392 (1998)).
(2) Evaluation of PDE9-Inhibiting Activity
The PDE9-inhibiting activity was measured by the following method. That is, to a buffer solution containing tris(hydroxymethyl)aminomethane-hydrochloric acid (40 mM, pH 8.0), magnesium chloride (5 mM), and 2-mercaptoethanol (4 mM) were added cGMP (1 μM) and ^3H-cGMP (0.33 μCi/ml) to give a substrate buffer solution. A test substance solution and an enzyme solution which had been adjusted to an optimal concentration were added thereto to perform a reaction at 30° C. The enzyme reaction was stopped by the addition of Scintillation Proximity Assay (SPA) Beads (Perkin Elmer, USA) containing 5 mM 3-isobutyl-1-methylxanthine (IBMX). For the enzyme activity, the amount of 5′-GMP, which is a reaction degradation product bound to SPA beads, was measured with a TopCount microplate reader (Hewlett Packard, USA).
The inhibitory rate was calculated by taking the radioactivity of the control containing no test substance as (A), taking the radioactivity of the blank containing no enzyme as (B), and taking the radioactivity of the test substance as (C), and using the following equation. Inhibitory rate=100−{(C)−(B)/(A)−(B)}×100(%)

By melting point is commonly meant the temperature of the solid-liquid transition. One may read the IC50 as the concentration that gives 50% inhibition. A high value points to a need for much substance.

T1 sequence (O76083 whole entry): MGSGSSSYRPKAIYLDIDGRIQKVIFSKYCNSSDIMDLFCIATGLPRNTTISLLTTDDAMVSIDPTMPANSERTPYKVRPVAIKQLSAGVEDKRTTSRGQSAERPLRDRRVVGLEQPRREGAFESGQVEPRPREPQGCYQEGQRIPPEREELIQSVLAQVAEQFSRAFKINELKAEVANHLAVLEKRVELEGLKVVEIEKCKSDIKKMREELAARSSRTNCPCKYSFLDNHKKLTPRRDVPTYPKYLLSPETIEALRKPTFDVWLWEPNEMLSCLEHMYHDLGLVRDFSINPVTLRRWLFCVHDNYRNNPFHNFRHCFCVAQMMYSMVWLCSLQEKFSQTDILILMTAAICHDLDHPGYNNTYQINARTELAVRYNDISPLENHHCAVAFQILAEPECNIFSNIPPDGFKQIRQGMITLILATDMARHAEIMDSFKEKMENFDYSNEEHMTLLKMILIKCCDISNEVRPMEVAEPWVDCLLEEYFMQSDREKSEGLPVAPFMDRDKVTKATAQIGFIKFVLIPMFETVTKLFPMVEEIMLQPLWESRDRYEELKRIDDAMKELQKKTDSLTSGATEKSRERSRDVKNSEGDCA

With `CCc1cnc2c(c1)CCN2C(=O)c1cc2[nH]c(=O)c3nnc(CC4CC4)n3c2cc1C` (as salt: hydrochloride) [Example 6, 1-(cyclopropylmethyl)-7-[(5-ethyl-2,3-dihydro-11′-pyrrolo[2,3-b]pyridin-1-yl)carbonyl]-8-methyl[1,2,4]triazolo[4,3-a]quinoxalin-4(5H)-one dihydrochloride], the melting point lay within 173 to 175 °C.
Regarding `Cc1cc2c(cc1C(=O)N1CCc3cc(Br)cnc31)[nH]c(=O)c1cnc([C@@H]3CCC[C@@H]3O)n12` (racemic) [Example 5, 7-[(5-bromo-2,3-dihydro-1H-pyrrolo[2,3-b]pyridin-1-yl)carbonyl]-1-(cis-2-hydroxycyclopentyl)-8-methylimidazo[1,5-a]quinoxalin-4(5H)-one], the melting point was 296 to 303 °C. Also, the midpoint of inhibition in series [1], the IC50, lay at 62 nM.
On to `COCc1cc2c(cc1C(=O)N1CCc3cc(C)cnc31)[nH]c(=O)c1cnc(C3CCOC3)n12` (single isomer, unassigned) [Example 25(a)], for which, in series [1], half-maximal inhibition (IC50) required 62 nM.
On the same count and under the same terms, under `Cc1cnc2c(c1)CCN2C(=O)c1cc2[nH]c(=O)c3cnc(C4CCOC4)n3c2cc1C` (single isomer, unassigned) [Example 26(a)] stands 152 nM.
Same read-out and setting: under `Cc1cnc2c(c1)CCN2C(=O)c1cc2[nH]c(=O)c3cnc(C4CCOC4)n3c2cc1C` (single isomer, unassigned) [Example 26(b)] stands 45 nM.
The same measure, in the same setting: the value for `COc1cc2c(cn1)N(C(=O)c1cc3[nH]c(=O)c4cnc(C5CCOC5)n4c3cc1C)CC2` (single isomer, unassigned) [Example 27(a)] was 137 nM; that for `CCc1cnc2c(c1)CCN2C(=O)c1cc2[nH]c(=O)c3cnc(C4CCOC4)n3c2cc1C` (single isomer, unassigned) [Example 28(a)] was 139 nM.
`CCc1cnc2c(c1)CCN2C(=O)c1cc2[nH]c(=O)c3cnc(C4CCOC4)n3c2cc1C` (single isomer, unassigned) [Example 28(b)]: in series [1], the IC50 is 47 nM.
Still for that read-out and setting: under `Cc1cc2c(cc1C(=O)N1CCc3cc(Br)cnc31)[nH]c(=O)c1cnc(C3CCOC3)n12` (single isomer, unassigned) [Example 29(a)] stands 24 nM; under `Cc1cc2c(cc1C(=O)N1CCc3cc(F)c(F)cc31)[nH]c(=O)c1cnc(C3CCOC3)n12` (single isomer, unassigned) [Example 30(a)], 38 nM.
In series [1], `Cc1cc2c(cc1C(=O)N1Cc3c(F)ccc(F)c3C1)[nH]c(=O)c1cnc(C3CCOC3)n12` (single isomer, unassigned) [Example 39(a)] had an IC50 of 52 nM.
In series [1], `Cc1cc2c(cc1C(=O)N1Cc3c(F)ccc(F)c3C1)[nH]c(=O)c1cnc(C3CCOC3)n12` (single isomer, unassigned) [Example 39(b)] gave a concentration for half-maximal inhibition (IC50) of 14 nM.
In the case of `CCc1cnc2c(c1)CCN2C(=O)c1cc2[nH]c(=O)c3cnc(C4CCOC4)n3c2cc1COC` (single isomer, unassigned) [Example 40(a)], the midpoint of inhibition in series [1], the IC50, lay at 77 nM.
As for `CCc1cnc2c(c1)CCN2C(=O)c1cc2[nH]c(=O)c3cnc(C4CCOC4)n3c2cc1COC` (single isomer, unassigned) [Example 40(b)], in series [1], the IC50 was 16 nM. Against the preceding compound, the IC50 is about 4.8-fold lower.
For `COCc1cc2c(cc1C(=O)N1CCc3cc(Br)cnc31)[nH]c(=O)c1cnc(C3CCOC3)n12` (single isomer, unassigned) [Example 43(a)], the IC50 in series [1] came out at 25 nM.
In series [1], `COCc1cc2c(cc1C(=O)N1Cc3c(F)ccc(F)c3C1)[nH]c(=O)c1cnc(C3CCOC3)n12` (single isomer, unassigned) [Example 45(a)] displayed a 50% inhibitory concentration (IC50) of 26 nM.
Compound `COCc1cc2c(cc1C(=O)N1CCc3cc(OC)ncc31)[nH]c(=O)c1cnc(C3CCOC3)n12` (single isomer, unassigned; (-)) [Example 4(a), (−)-7-[(5-methoxy-2,3-dihydro-1H-pyrrolo[2,3-c]pyridin-1-yl)carbonyl]-8-(methoxymethyl)-1-(tetrahydrofuran-3-yl)imidazo[1,5-a]quinoxalin-4(5H)-one dihydrochloride] gave an IC50 in series [1] of 62 nM.
`O=C(c1cc2[nH]c(=O)c3cnc(C4CCOCC4)n3c2cc1OCC1CCOC1)N1CCc2cc(Br)cnc21` (stereo not drawn) [Example 1, 7-[(5-bromo-2,3-dihydro-1H-pyrrolo[2,3-b]pyridin-1-yl)carbonyl]-8-(tetrahydrofuran-3-ylmethoxy)-1-(tetrahydro-2H-pyran-4-yl)imidazo[1,5-a]quinoxalin-4(5H)-one]: the melting point is 321 to 324 °C (dec.). The same compound returned an IC50 in series [1] of 3.5 nM.
In the same order, the values of `COc1cc2c(cn1)N(C(=O)c1cc3[nH]c(=O)c4cnc(C5CCOCC5)n4c3cc1F)CC2` [Example 2, 8-fluoro-7-[(5-methoxy-2,3-dihydro-1H-pyrrolo[2,3-c]pyridin-1-yl)carbonyl]-1-(tetrahydro-2H-pyran-4-yl)imidazo[1,5-a]quinoxalin-4(5H)-one] are 275 to 277 °C and 51 nM.
For `COc1cc2c(cn1)N(C(=O)c1cc3[nH]c(=O)c4cnc(C5CCCOC5)n4c3cc1C)CC2` (stereo not drawn) [Example 3, 7-[(5-methoxy-2,3-dihydro-1H-pyrrolo[2,3-c]pyridin-1-yl)carbonyl]-8-methyl-1-(tetrahydro-2H-pyran-3-yl)imidazo[1,5-a]quinoxalin-4(5H)-one], the melting point is 297 to 299 °C. The compound also registered an IC50 in series [1] of 22 nM.
`CCc1cnc2c(c1)CCN2C(=O)c1cc2[nH]c(=O)c3nnc(CC4CC4)n3c2cc1C` [Example 6, 1-(cyclopropylmethyl)-7-[(5-ethyl-2,3-dihydro-11′-pyrrolo[2,3-b]pyridin-1-yl)carbonyl]-8-methyl[1,2,4]triazolo[4,3-a]quinoxalin-4(5H)-one dihydrochloride] had an IC50 in series [1] of 64 nM. In other words, the double-digit nanomolar range.
Compound `Cc1cc2c(cc1C(=O)N1c3ccc(Cl)cc3CC1C)[nH]c(=O)c1nnc(C3CCOCC3)n12.Cl` (stereo not drawn) [Example 7] had a melting point of 324 to 326 °C. For the same compound, the IC50 in series [1] worked out at 2.1 nM.
`COC1CC(c2nnc3c(=O)[nH]c4cc(C(=O)N5CCc6cc(Cl)ccc65)c(C)cc4n23)C1.Cl` (stereo not drawn) [Example 8] returned a melting point of 200 to 202 °C. The same compound returned an IC50 in series [1] of 2.8 nM.
Regarding `COCC1Cc2cc(Cl)ccc2N1C(=O)c1cc2[nH]c(=O)c3nnc(C4CCOCC4)n3c2cc1C` (stereo not drawn) [Example 9], the IC50 in series [1] was found to be 1.3 nM. This counts as single-digit nanomolar.
The compound `Cl.O=C(c1cc2[nH]c(=O)c3cnc(C4CCOCC4)n3c2cc1OCC1CCOC1)N1CCc2cc(F)ccc21` (stereo not drawn) [Example 10] registered a melting point of 177 to 180 °C. The midpoint of inhibition in series [1], the IC50, lay at 4.5 nM.
For the compound `Cc1cc2c(cc1C(=O)N1Cc3cccc(CN(C)C)c3C1)[nH]c(=O)c1cnc(C3CCOCC3)n12` [Example 11], the IC50 in series [1] amounted to 31 nM. In other words, the double-digit nanomolar range.
Same read-out and setting: under `O=C(c1cc2[nH]c(=O)c3cnc(C4CCOCC4)n3c2cc1F)N1CCc2cc(Cl)ccc21` [Example 12] stands 3.6 nM.
Compound `CCc1cnc2c(c1)CCN2C(=O)c1cc2[nH]c(=O)c3cnc(C4CCOCC4)n3c2cc1C` [Example 13] had a melting point of 331 to 333 °C. Further, the IC50 in series [1] amounted to 14 nM.
In series [1], `COCc1cccc2c1CN(C(=O)c1cc3[nH]c(=O)c4cnc(C5CCOCC5)n4c3cc1C)C2` [Example 14] showed a half-inhibitory concentration (IC50) of 14 nM. This lies in the double-digit nanomolar range.
Regarding `COC1CC(c2nnc3c(=O)[nH]c4cc(C(=O)N5CCc6cc(Br)ccc65)c(C)cc4n23)C1.Cl` (stereo not drawn) [Example 15], the melting point was 188 to 189 °C. The IC50 in series [1] was found to be 2.8 nM.
In series [1], `CCc1cc2c(cc1C(=O)N1CCc3cc(Cl)ccc31)[nH]c(=O)c1nnc(CC3CC3)n12` [Example 16] returned an IC50 of 3.3 nM.
Still for that read-out and setting: the value for `CCc1cc2c(cc1C(=O)N1CCc3cc(F)ccc31)[nH]c(=O)c1nnc(CC3CC3)n12` [Example 17] was 8.5 nM; that for `CCc1cc2c(cc1C(=O)N1CCc3cc(Br)cnc31)[nH]c(=O)c1nnc(CC3CC3)n12` [Example 18] was 5.4 nM; that for `CCc1cnc2c(c1)CCN2C(=O)c1cc2[nH]c(=O)c3cnc(C4CCOC4)n3c2cc1C` (stereo not drawn) [Example 28] was 52 nM.
The same measure, in the same setting: the value for `Cc1cc2c(cc1C(=O)N1CCc3cc(Br)cnc31)[nH]c(=O)c1cnc(C3CCOC3)n12` (stereo not drawn) [Example 29] was 15 nM.
On the same count and under the same terms, the value for `Cc1cc2c(cc1C(=O)N1CCc3cc(F)c(F)cc31)[nH]c(=O)c1cnc(C3CCOC3)n12` (stereo not drawn) [Example 30] was 11 nM; that for `Cc1cc2c(cc1C(=O)N1CC(C)(C)c3cc(Br)cnc31)[nH]c(=O)c1nnc(C3CCOCC3)n12` [Example 33] was 0.81 nM.
Regarding `COC1CC(c2nnc3c(=O)[nH]c4cc(C(=O)N5CCc6cc(Br)cnc65)c(C)cc4n23)C1` (stereo not drawn) [Example 34], it took 7.5 nM to reach half-maximal inhibition in series [1] (IC50).
In series [1], `CCc1cc2c(cc1C(=O)N1CCc3cc(Br)cnc31)[nH]c(=O)c1nnc(C3CCC3)n12` [Example 35] showed an IC50 of 19 nM. This IC50 lies about 2.5-fold higher than the previous one.
Still for that read-out and setting: the value for `Cc1cc2c(cc1C(=O)N1Cc3c(F)ccc(F)c3C1)[nH]c(=O)c1nnc(C3CCC3)n12` [Example 36] was 53 nM.
Same read-out and setting: under `CCc1cc2c(cc1C(=O)N1Cc3c(F)ccc(F)c3C1)[nH]c(=O)c1nnc(C3CCC3)n12` [Example 37] stands 53 nM; under `Cc1cc2c(cc1C(=O)N1Cc3c(F)ccc(F)c3C1)[nH]c(=O)c1nnc(CC3CC3)n12` [Example 38], 28 nM.
